Data from paper PMC10609143, “Inhibitory Mechanisms of Lekethromycin in Dog Liver Cytochrome P450 Enzymes Based on UPLC-MS/MS Cocktail Method” (Molecules, 2023).
pIC50, pKi: −log10 of the molar value.

What was measured:
Assay type in all cases: in vitro ADME
[1] = target: T1, CYP2D6 (Canis lupus familiaris, UniProt Q29473); test: CYP450 inhibition study of LKMS in dog liver microsomes, dextromethorphan O-demethylation
T1 construct: from tissue; host or cells: dog liver microsomes (DLM)
T1 sequence (Q29473 1-500): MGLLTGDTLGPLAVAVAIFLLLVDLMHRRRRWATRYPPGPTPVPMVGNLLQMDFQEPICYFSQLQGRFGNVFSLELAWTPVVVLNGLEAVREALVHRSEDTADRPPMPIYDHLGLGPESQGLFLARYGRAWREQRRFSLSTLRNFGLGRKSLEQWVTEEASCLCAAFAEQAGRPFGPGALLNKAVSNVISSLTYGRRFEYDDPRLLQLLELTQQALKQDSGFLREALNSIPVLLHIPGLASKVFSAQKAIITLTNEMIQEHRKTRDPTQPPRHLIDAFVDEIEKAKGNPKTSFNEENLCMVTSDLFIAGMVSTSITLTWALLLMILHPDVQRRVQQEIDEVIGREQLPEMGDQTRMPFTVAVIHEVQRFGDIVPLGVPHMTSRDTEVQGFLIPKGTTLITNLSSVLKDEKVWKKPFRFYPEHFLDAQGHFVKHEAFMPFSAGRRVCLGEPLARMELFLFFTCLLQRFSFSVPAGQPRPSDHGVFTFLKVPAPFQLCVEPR
Method: (§1) All experiments were performed in triplicate.
(§2) Inhibition assessment of CYP450 isoforms in DLM was performed with a fixed concentration of model probe substrates and a series of concentrations of LKMS ranging from 0 to 80 μM. The concentration of probe substrates was at a concentration of Km in this study. […] Mode inhibition was examined based on a primary Lineweaver–Burk plot and a secondary plot.
(§3) The IC50 values and enzyme kinetic parameters were determined by plotting relative activities over the logarithm of the concentration of LKMS using GraphPad (v.8.0.2, CA, USA). The mode of the inhibitor was analyzed using a Lineweaver–Burk plot and a secondary plot for inhibition constant (Ki and αKi) values. All experimental data are shown as mean ± standard deviation (SD).

[2] = test system: CYP2C9; test: CYP450 inhibition study of LKMS in dog liver microsomes, tolbutamide 4-hydroxylation; settings: probe at Km, 15 min, 0.2 mg/mL protein, n = 3
Method: as §1, §2, §3

[3] = target: T2, CYP1A2 (Canis lupus familiaris, UniProt P56592); test: CYP450 inhibition study of LKMS in dog liver microsomes (cocktail, UPLC-MS/MS), phenacetin O-deethylation; settings: probe at Km, 15 min, 0.2 mg/mL protein, n = 3
T2 construct: from tissue; host or cells: dog liver microsomes (DLM)
T2 sequence (P56592 1-512): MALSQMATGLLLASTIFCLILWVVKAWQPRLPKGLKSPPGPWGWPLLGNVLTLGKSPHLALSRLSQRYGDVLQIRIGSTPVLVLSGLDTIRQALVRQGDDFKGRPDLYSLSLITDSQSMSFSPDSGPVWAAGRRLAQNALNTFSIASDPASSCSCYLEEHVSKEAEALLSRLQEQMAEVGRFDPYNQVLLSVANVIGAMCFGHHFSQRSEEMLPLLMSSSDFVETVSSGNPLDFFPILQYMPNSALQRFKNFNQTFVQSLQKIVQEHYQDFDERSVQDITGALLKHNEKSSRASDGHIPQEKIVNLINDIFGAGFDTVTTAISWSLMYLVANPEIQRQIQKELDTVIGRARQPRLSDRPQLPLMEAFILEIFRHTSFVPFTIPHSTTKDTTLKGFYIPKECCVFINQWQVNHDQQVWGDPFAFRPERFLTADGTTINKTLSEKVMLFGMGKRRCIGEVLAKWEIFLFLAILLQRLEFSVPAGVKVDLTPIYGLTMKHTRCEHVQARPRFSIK
Method: as §1, §2, §3

[4] = test system: CYP2A6; test: CYP450 inhibition study of LKMS in dog liver microsomes, coumarin hydroxylation
Method: as §1, §2, §3

[5] = target: T3, CYP2B6 (Canis lupus familiaris, UniProt P24460); test: CYP450 inhibition study of LKMS in dog liver microsomes, bupropion hydroxylation
T3 construct: from tissue; host or cells: dog liver microsomes (DLM)
T3 sequence (P24460 1-494): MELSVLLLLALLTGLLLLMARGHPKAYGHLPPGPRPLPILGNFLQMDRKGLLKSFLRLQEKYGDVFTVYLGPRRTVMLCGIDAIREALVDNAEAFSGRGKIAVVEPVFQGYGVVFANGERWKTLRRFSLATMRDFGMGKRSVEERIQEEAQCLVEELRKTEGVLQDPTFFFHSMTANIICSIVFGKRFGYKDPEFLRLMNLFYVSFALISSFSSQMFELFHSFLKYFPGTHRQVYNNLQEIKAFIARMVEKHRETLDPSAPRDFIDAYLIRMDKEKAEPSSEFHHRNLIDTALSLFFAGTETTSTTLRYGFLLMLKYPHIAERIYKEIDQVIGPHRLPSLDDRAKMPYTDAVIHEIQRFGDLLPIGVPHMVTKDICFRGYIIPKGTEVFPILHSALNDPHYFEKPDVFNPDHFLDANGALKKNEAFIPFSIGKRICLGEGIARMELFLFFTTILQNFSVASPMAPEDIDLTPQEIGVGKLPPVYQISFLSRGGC
Method: as §1, §2, §3

[6] = target: T4, CYP2E1 (Canis lupus familiaris, UniProt Q9MZY0); test: CYP450 inhibition study of LKMS in dog liver microsomes, chlorzoxazone hydroxylation; settings: probe at Km, 15 min, 0.2 mg/mL protein, n = 3
T4 construct: from tissue; host or cells: dog liver microsomes (DLM)
T4 sequence (Q9MZY0 whole entry): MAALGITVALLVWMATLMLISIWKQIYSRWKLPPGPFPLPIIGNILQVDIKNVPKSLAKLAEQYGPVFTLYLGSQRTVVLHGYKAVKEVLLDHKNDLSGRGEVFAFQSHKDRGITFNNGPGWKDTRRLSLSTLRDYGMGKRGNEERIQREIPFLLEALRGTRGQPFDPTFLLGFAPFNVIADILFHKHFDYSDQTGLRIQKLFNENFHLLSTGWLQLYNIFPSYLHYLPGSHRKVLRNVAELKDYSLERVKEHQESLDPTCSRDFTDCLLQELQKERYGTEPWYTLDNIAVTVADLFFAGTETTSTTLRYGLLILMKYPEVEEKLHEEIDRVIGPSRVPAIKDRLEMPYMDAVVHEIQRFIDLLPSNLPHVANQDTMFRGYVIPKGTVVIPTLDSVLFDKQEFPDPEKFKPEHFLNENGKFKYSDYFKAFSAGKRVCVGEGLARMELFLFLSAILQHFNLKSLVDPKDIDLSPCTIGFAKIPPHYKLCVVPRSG
Method: as §1, §2, §3

[7] = test system: CYP450 enzymes in dog liver microsomes; test: Chemical inhibition experiments: LKMS disappearance rate with selective CYP450 inhibitors; settings: n = 3
Method: The effect of selective inhibitors on the rate of LKMS disappearance was investigated to identify the metabolizing enzymes of LKMS. The total volume of the incubation system was 200 μL, which contained the tested compound, inhibitors, PBS (pH = 7.4), LKMS, and NADPH. The study was performed via incubation with different inhibitors of CYP450 as follows: α-naphthoflavone (CYP1A2, 2 μM), pilocarpine (CYP2A6, 8 μM), Thio-TEPA (CYP2B6, 6 μM), sulfaphenazole (CYP2C9, 6 μM), quinidine (CYP2D6, 8 μM), sodium diethyldithiocarbamate (CYP2E1, 20 μM), and ketoconazole (CYP3A4, 2 μM). The sample incubated without inhibitors was used as a negative control. The sample was incubated with dimethyl sulfoxide (DMSO) (25%) as a positive control in this study. Following this pilot, confirmatory experiments were conducted by incubating with DLM in the presence of specific CYP450 inhibitors.

[8] = CYP450 inhibition study of LKMS in dog liver microsomes, testosterone 6β-hydroxylation; settings: probe at Km, 15 min, 0.2 mg/mL protein, n = 3
Method: as §1, §2, §3

Which results are given for Lekethromycin [LKMS]?
Mode of inhibition ([1]; CYP2D6, Lineweaver-Burk plots): mixed way; pKi ([1]; CYP2D6, dog liver microsomes, Lineweaver-Burk and secondary (slope) plot, n = 2, read-out: Ki (inhibition constant)): 4.19; αKi (alpha inhibition constant) ([1]; CYP2D6, dog liver microsomes, secondary (intercept) plot, n = 2): 279.6 µM; pIC50 ([1]; dog liver microsomes, dextromethorphan O-demethylation, probe at Km, 15 min, 0.2 mg/mL protein, n = 3): 4.40; pIC50 [2]: < 3.70; pIC50 [3]: < 3.70; Mode of inhibition ([4]; CYP2A6, Lineweaver-Burk plots): mixed-type inhibition; pKi ([4]; CYP2A6, dog liver microsomes, Lineweaver-Burk and secondary (slope) plot, n = 2, read-out: Ki (inhibition constant)): 3.87; αKi (alpha inhibition constant) ([4]; CYP2A6, dog liver microsomes, secondary (intercept) plot, n = 2): 227.6 µM; pIC50 ([4]; dog liver microsomes, coumarin hydroxylation, probe at Km, 15 min, 0.2 mg/mL protein, n = 3): 4.20; Mode of inhibition ([5]; CYP2B6, Lineweaver-Burk plots): mixed way; pKi ([5]; CYP2B6, dog liver microsomes, Lineweaver-Burk and secondary (slope) plot, n = 2, read-out: Ki (inhibition constant)): 4.23; αKi (alpha inhibition constant) ([5]; CYP2B6, dog liver microsomes, secondary (intercept) plot, n = 2): 12.07 µM; pIC50 [6]: < 3.70; Decrease of biotransformation rate of LKMS ([7]; CYP1A2 inhibitor α-naphthoflavone 2 μM): about 50%; Decrease of biotransformation rate of LKMS ([7]; CYP2A6 inhibitor pilocarpine 8 μM): about 50%; Decrease of biotransformation rate of LKMS ([7]; CYP2B6 inhibitor Thio-TEPA 6 μM): about 50%; Decrease of biotransformation rate of LKMS ([7]; CYP2C9 inhibitor sulfaphenazole 6 μM): about 50%; Decrease of biotransformation rate of LKMS ([7]; CYP2E1 inhibitor sodium diethyldithiocarbamate 20 μM): about 50%; pIC50 [8]: < 3.70
